From patent US20090311344A1, “Dosing Regimen” (priority 2008, published 2009)
“Also recorded” adds a separate entry of the source.

What was measured:
[1] = system: platelet count; assay: platelet count in the rat after a single i.v. dose; type: in vivo; details: single i.v. dose 30 to 300 μg/kg
Protocol: The TPO mimetic peptide compound has an estimated EC50 of approximately 5 pM (0.2 ng/mL) in a human TPO (huTPO) receptor assay in vitro and stimulates megakaryocyte lineage specific growth and differentiation in vivo.

[2] = Single dose study in healthy subjects: pharmacokinetics; type: in vivo, human
Protocol: The median tmax of the TPO mimetic peptide compound ranged between 0.09 to 2 hours following single i.v. administration. […] However, the elimination phase appeared consistent across the dose range.

[3] = Single dose study in healthy subjects: safety, tolerability, antibodies; type: in vivo, human
Protocol: (§1) See, e.g., U.S. patent application Ser. No. 11/354,065, filed Feb. 14, 2006, the entire contents of which are incorporated herein by reference.
Single i.v. doses of the TPO mimetic peptide compound up to and including 3 μg/kg were well-tolerated in healthy male subjects, with no apparent drug-related effects on adverse events, or cardiovascular or laboratory safety parameters (excluding platelet counts). Antibodies against the TPO mimetic peptide compound were not apparent in any post dose samples.

[4] = system: HT-29 human colon carcinoma xenografts; assay: HT-29 human colon carcinoma xenografts in athymic nude mice: tumor growth delay; type: in vivo
Excerpt: Administration of the TPO Mimetic Peptide Compound One Hour After Administration of Carboplatin. Effect on activity and toxicity of carboplatin against HT-29 human colon carcinoma xenografts established in athymic nude mice.
Five groups (n=10) of female athymic nude mice (Harlan) bearing established (˜100 mm^3) HT-29 human colon carcinomas on Day 1. Groups 6-9 (n=20) were included for blood sampling and received the same treatment as Groups 1-4, respectively. Treatment effects on the growth of tumors were evaluated by tumor growth delay (TGD), which is the difference between median time to endpoint (TTE) tumor size in a treatment group compared to a control group. The effect of these treatments on platelet and erythrocyte precursors was determined from CBC analysis and reticulocyte counts of blood samples taken on Days 10, 13, 21 and 24.
Xenografts were initiated from HT-29 human colon carcinoma xenografts maintained in athymic nude mice. HT-29 tumor fragments (1 mm^3) were implanted subcutaneously into the right flank of each test mouse, and tumor growth was monitored. On Day 1 of the study, the animals were pair-matched into five groups (Groups 1-5) for evaluation of efficacy and four groups for sampling (Groups 6-9). Groups 1-5 each consisted of ten animals with tumor sizes ranging from 75-126 mm^3 and group mean tumor sizes of 99 mm^3. Groups 6-9 each consisted of twenty animals with tumor sizes ranging from 40-221 mm^3 and group mean tumor sizes of 84 mm^3. Tumor weight was estimated with the assumption that 1 mg is equivalent to 1 mm^3 of tumor volume. Volume was calculated using the formula:
Group 1 mice (n=10) were untreated tumor growth controls. Group 2 mice (n=10) received 60 mg/kg carboplatin administered intraperitoneally (i.p.) on Days 1, 2, 12, and 13. Group 3 mice (n=10) received 0.2 mg/kg of the TPO mimetic peptide compound administered intravenously (i.v.) via tail vein on Days 2 and 13. Groups 4 and 5 received the combination of carboplatin (60 mg/kg i.p. on Days 1, 2, 12, and 13) and 0.2 mg/kg of the TPO mimetic peptide compound on Days 2, 13 and Days 2, 13, 23, respectively, administered intravenously (i.v.) one hour after carboplatin dosing. Groups 6-9 (n=20 each) were included for blood sampling and received the same treatments as Groups 1-4, respectively. For all groups, each dose of drug was given in a volume of 0.2 mL per 20 g of body weight (10 mL/kg), and was scaled to the body weight of each animal.
Tumors were measured twice each week using calipers. Each animal was euthanized when its tumor reached the predetermined endpoint size of 1000 mm^3, or on the final day of the study (Day 62), whichever came first. The time to endpoint (TTE) for each mouse was calculated from the following equation: […]
where b is the intercept and m is the slope of the line obtained by linear regression of a log-transformed tumor growth data set. The data set was comprised of the first observation that exceeded the study endpoint volume and the three consecutive observations that immediately preceded the attainment of the endpoint volume.
Treatment outcome was determined from tumor growth delay (TGD), which is defined as the increase in the median time to endpoint (TTE) in a treatment group compared to the control group:
where: • T=median TTE for a treatment group, • C=median TTE for the control group (Group 1)
Treatment may cause partial regression (PR) or complete regression (CR) of the tumor in an animal. In a PR response, the tumor volume is 50% or less of its Day 1 volume for three consecutive measurements during the course of the study, and equal to or greater than 13.5 mm^3 for one or more of these three measurements. In a CR response, the tumor volume is less than 13.5 mm^3 for three consecutive measurements during the course of the study. An animal with a CR response at the termination of a study is additionally classified as a long-term tumor-free survivor (LTTFS). […]

[5] = system: hemoglobin; assay: Multiple dose study in cancer subjects receiving platinum-based chemotherapy: hemoglobin; type: in vivo, human; details: Day 42
Excerpt: A total of 7 subjects were excluded from the preliminary statistical analysis of Day 42 platelet count data and 9 subjects were excluded from the preliminary statistical analysis of Day 42 hemoglobin data due to either incorrect randomization, platelet transfusion, not administered the 2nd dose of study medication, or lost to follow-up.

[6] = system: hemoglobin; assay: as above; type: in vivo, human
[7] = system: platelet count; assay: Single dose study in healthy subjects: platelets, megakaryocyte ploidy, progenitor cells; type: in vivo, human
Excerpt: as §1

[8] = addition of up to 3 cycles to carboplatin therapy

In the case of “Methoxypolyethyleneglycol20000-propionyl-L-Isoleucyl-L-Glutamyl-Glycyl-L-Prolyl-L-Threonyl-L-Leucyl-L-Arginyl-L-Glutaminyl-L-2-Naphthylalanyl-L-Leucyl-L-Alanyl-L-Alanyl-L-Arginyl-Sarcosyl-Ne-(methoxypolyethyleneglycol20000-propionyl-L-Isoleucyl-L-Glutamyl-Glycyl-L-Prolyl-L-Threonyl-L-Leucyl-L-Arginyl-L-Glutaminyl-L-2-Naphthylalanyl-L-Leucyl-L-Alanyl-L-Alanyl-L-Arginyl-Sarcosyl-)-Lysinamide [TPO mimetic peptide compound]”, the platelet count [1] is reported as “increased platelet count”, the “time at which platelet count returned to baseline” value [1] is reported as 12 days and the “time at which the platelet count increase was maximal” value [1] is reported as 6 days. For the same substance, the Cmax dose proportionality [2] was “increased approximately dose proportionally”, the mean terminal half-life ([2]; 3 μg/kg, not well defined) was “approximately 36 hours” and the AUC dose proportionality ([2]; 1.5- to 3-μg/kg dose range) was “no apparent dose proportionality”. For the same substance, the safety and tolerability ([3]; healthy male subjects, single i.v. doses 0.375 to 3 μg/kg) was “safe and generally well tolerated”, the “antibodies against the TPO mimetic peptide compound” value ([3]; healthy subjects, post dose samples) was “not apparent; also recorded: no evidence of antibody formation” and the “TGD (tumor growth delay)” value ([4]; Groups 2-4, relative to untreated Group 1, carboplatin 60 mg/kg i.p. Days 1, 2, 12, 13, TPO mimetic peptide compound 0.2 mg/kg i.v. Days 2, 13) was 8.1 days. The “% Tumor Growth Delay” value ([4]; HT-29 xenografts, athymic nude mice, n=10, carboplatin 60 mg/kg i.p. Days 1, 2, 12, 13, TPO mimetic peptide compound 0.2 mg/kg i.v. Days 2, 13, Groups 2-4, vs untreated Group 1) was 33%, the “Median TTE” value ([4]; HT-29 xenografts, athymic nude mice, n=10, carboplatin 60 mg/kg i.p. Days 1, 2, 12, 13, TPO mimetic peptide compound 0.2 mg/kg i.v. Days 2, 13, Groups 2-4, endpoint 1000 mm^3) was 32.9 days and the “effect on tumor growth” value ([4]; TPO mimetic peptide compound administration alone) was “did not enhance tumor growth”. The “impact on tumor growth delay” value [4, 8] was “no negative impact on tumor growth delay”, the “survival compared with carboplatin treatment alone” value [4, 8] was “small increase in survival; also recorded: small advantage in survival” and the “Change From Baseline in Hemoglobin, LS Mean (SE)” value ([5]; 1.5 μg/kg) was −1.63 (0.50). For the same substance, the “Change From Baseline in Hemoglobin, Diff of LS Mean (SE) vs Placebo” value (shortened to “Change From Baseline … (SE) vs Placebo”) ([5]; 2.25 μg/kg) was 0.57 (0.57), the “Change From Baseline in Hemoglobin, LS Mean (SE)” value ([5]; 2.25 μg/kg) was −1.60 (0.42) and the “hemoglobin as compared with placebo” value ([6]; 2.25 and 3 μg/kg doses) was “trends for preservation of hemoglobin”. For the same substance, the “Change From Baseline … (SE) vs Placebo” value ([6]; Day 42, 1.5 μg/kg) was 0.54 (0.63), the “Change From Baseline … (SE) vs Placebo” value ([6]; Day 42, 3.0 μg/kg) was 1.00 (0.61) and the “Change From Baseline in Hemoglobin, LS Mean (SE)” value ([6]; Day 42, 3.0 μg/kg) was −1.16 (0.47). For the same substance, the “Change From Baseline … (SE) vs Placebo” value ([6]; Day 63, 1.5 μg/kg) was −0.75 (0.90), the “Change From Baseline in Hemoglobin, LS Mean (SE)” value ([6]; Day 63, 1.5 μg/kg) was −2.98 (0.70) and the “Change From Baseline … (SE) vs Placebo” value ([6]; Day 63, 2.25 μg/kg) was 0.68 (0.83). The “Change From Baseline in Hemoglobin, LS Mean (SE)” value ([6]; Day 63, 2.25 μg/kg) was −1.55 (0.61), the “Change From Baseline … (SE) vs Placebo” value ([6]; Day 63, 3.0 μg/kg) was 0.79 (0.83) and the “Change From Baseline in Hemoglobin, LS Mean (SE)” value ([6]; Day 63, 3.0 μg/kg) was −1.44 (0.61). For the same substance, the “Change From Baseline … (SE) vs Placebo” value ([6]; Day 84, 1.5 μg/kg) was 0.05 (0.73), the “Change From Baseline in Hemoglobin, LS Mean (SE)” value ([6]; Day 84, 1.5 μg/kg) was −1.88 (0.55) and the “Change From Baseline … (SE) vs Placebo” value ([6]; Day 84, 2.25 μg/kg) was 0.37 (0.77). The “Change From Baseline in Hemoglobin, LS Mean (SE)” value ([6]; Day 84, 2.25 μg/kg) was −1.56 (0.61), the “Change From Baseline … (SE) vs Placebo” value ([6]; Day 84, 3.0 μg/kg) was 1.57 (0.77) and the “Change From Baseline in Hemoglobin, LS Mean (SE)” value ([6]; Day 84, 3.0 μg/kg) was −0.36 (0.61). For the same substance, the “change in hemoglobin levels from baseline to the end of Cycle 2 (Day 42) and beyond” value ([6]; preliminary evaluation) was “dose-related trend for preservation of hemoglobin”, the mean platelet count ([7]; healthy male subjects, single i.v. administration) was “dose-dependently increased; also recorded: dose dependent, nonlinear increase” and the “elevated platelet counts, increase from baseline” value ([7]; healthy subjects, 3.0 μg/kg dose) was at least 3 fold. For the same substance, the “mean number of CD62P+ platelets” value ([7]; healthy subjects, 2 highest doses) was “appeared to increase”, the mean megakaryocyte ploidy ([7]; healthy subjects, doses of 1.5 μg/kg and above) was “increased compared with placebo” and the “mean numbers of hematopoietic progenitor cells (BFU-E and peripheral CD34+ cells)” value ([7]; healthy subjects, highest dose) was “increased compared with placebo; also recorded: increased mean numbers of hematopoietic progenitor cells”.
